Results as given in BindingDB's records for doi:10.1016/j.bmcl.2008.06.095 (Tokyo University of Agriculture and Technology, 2008).

Test: Antagonist activity at VDR in human HL60 cells assessed as effect on 1,25-(OH)2-D3-induced cell differentiation by NBT assay

Row | SMILES | IC50 [nM]
1 | C=C1/C(=C\C=C2/CCC[C@]3(C)[C@@H]([C@H](C)C[C@@H]4C[C@@](C)(O)C(=O)N4Cc4cc(OC)cc(OC)c4)CC[C@@H]23)C[C@@H](O)C[C@@H]1O [(3R,5R)-1-(3,5-dimethoxybenzyl)-5-((R)-2-((1R,3aS,7aR)-4-(2-((3S,5R)-3,5-dihydroxy-2-methylenecyclohexylidene)ethylidene)-7a-methyl-octahydro-1H-inden-1-yl)propyl)-3-hydroxy-3-methylpyrrolidin-2-one] | > 3000
2 | C=C1/C(=C\C=C2/CCC[C@]3(C)[C@@H]([C@H](C)C[C@H]4C[C@@](C)(O)C(=O)N4Cc4cc(OC)cc(OC)c4)CC[C@@H]23)C[C@@H](O)C[C@@H]1O [(3R,5S)-1-(3,5-dimethoxybenzyl)-5-((R)-2-((1R,3aS,7aR)-4-(2-((3S,5R)-3,5-dihydroxy-2-methylenecyclohexylidene)ethylidene)-7a-methyl-octahydro-1H-inden-1-yl)propyl)-3-hydroxy-3-methylpyrrolidin-2-one] | > 3000
3 | C=C1/C(=C\C=C2/CCC[C@]3(C)[C@@H]([C@H](C)C[C@@H]4C[C@](C)(O)C(=O)N4Cc4cc(OC)cc(OC)c4)CC[C@@H]23)C[C@@H](O)C[C@@H]1O [(3S,5R)-1-(3,5-dimethoxybenzyl)-5-((R)-2-((1R,3aS,7aR)-4-(2-((3S,5R)-3,5-dihydroxy-2-methylenecyclohexylidene)ethylidene)-7a-methyl-octahydro-1H-inden-1-yl)propyl)-3-hydroxy-3-methylpyrrolidin-2-one] | > 3000
4 | C=C1/C(=C\C=C2/CCC[C@]3(C)[C@@H]([C@H](C)C[C@H]4C[C@](C)(O)C(=O)N4Cc4cc(OCCCC)cc(OCCCC)c4)CC[C@@H]23)C[C@@H](O)C[C@@H]1O [(3S,5S)-1-(3,5-dibutoxybenzyl)-5-((R)-2-((1R,3aS,7aR)-4-(2-((3S,5R)-3,5-dihydroxy-2-methylenecyclohexylidene)ethylidene)-7a-methyl-octahydro-1H-inden-1-yl)propyl)-3-hydroxy-3-methylpyrrolidin-2-one] | 540
5 | C=C1/C(=C\C=C2/CCC[C@]3(C)[C@@H]([C@H](C)C[C@H]4C[C@](C)(O)C(=O)N4Cc4cc(OCC)cc(OCC)c4)CC[C@@H]23)C[C@@H](O)C[C@@H]1O [(3S,5S)-1-(3,5-diethoxybenzyl)-5-((R)-2-((1R,3aS,7aR)-4-(2-((3S,5R)-3,5-dihydroxy-2-methylenecyclohexylidene)ethylidene)-7a-methyl-octahydro-1H-inden-1-yl)propyl)-3-hydroxy-3-methylpyrrolidin-2-one] | 90
6 | C=C1/C(=C\C=C2/CCC[C@]3(C)[C@@H]([C@H](C)C[C@H]4C[C@](C)(O)C(=O)N4Cc4cc(OC)cc(OC)c4)CC[C@@H]23)C[C@@H](O)C[C@@H]1O [(3S,5S)-1-(3,5-dimethoxybenzyl)-5-((R)-2-((1R,3aS,7aR)-4-(2-((3S,5R)-3,5-dihydroxy-2-methylenecyclohexylidene)ethylidene)-7a-methyl-octahydro-1H-inden-1-yl)propyl)-3-hydroxy-3-methylpyrrolidin-2-one] | 300
7 | C=C1/C(=C\C=C2/CCC[C@]3(C)[C@@H]([C@H](C)C[C@H]4C[C@](C)(O)C(=O)N4CCc4cc(OC)cc(OC)c4)CC[C@@H]23)C[C@@H](O)C[C@@H]1O [(3S,5S)-1-(3,5-dimethoxyphenethyl)-5-((R)-2-((1R,3aS,7aR)-4-(2-((3S,5R)-3,5-dihydroxy-2-methylenecyclohexylidene)ethylidene)-7a-methyl-octahydro-1H-inden-1-yl)propyl)-3-hydroxy-3-methylpyrrolidin-2-one] | 860
8 | C=C1/C(=C\C=C2/CCC[C@]3(C)[C@@H]([C@H](C)C[C@H]4C[C@](C)(O)C(=O)N4Cc4cc(OCCC)cc(OCCC)c4)CC[C@@H]23)C[C@@H](O)C[C@@H]1O [(3S,5S)-1-(3,5-dipropoxybenzyl)-5-((R)-2-((1R,3aS,7aR)-4-(2-((3S,5R)-3,5-dihydroxy-2-methylenecyclohexylidene)ethylidene)-7a-methyl-octahydro-1H-inden-1-yl)propyl)-3-hydroxy-3-methylpyrrolidin-2-one] | 180
9 | C=C1/C(=C\C=C2/CCC[C@]3(C)[C@@H]([C@H](C)C[C@H]4C[C@](C)(O)C(=O)N4Cc4ccccc4)CC[C@@H]23)C[C@@H](O)C[C@@H]1O [(3S,5S)-1-benzyl-5-((R)-2-((1R,3aS,7aR)-4-(2-((3S,5R)-3,5-dihydroxy-2-methylenecyclohexylidene)ethylidene)-7a-methyl-octahydro-1H-inden-1-yl)propyl)-3-hydroxy-3-methylpyrrolidin-2-one] | 700
10 | C=C1/C(=C\C=C2/CCC[C@]3(C)[C@@H]([C@H](C)C[C@H]4C[C@](C)(O)C(=O)N4CCCc4cc(OC)cc(OC)c4)CC[C@@H]23)C[C@@H](O)C[C@@H]1O [(3S,5S)-5-((R)-2-((1R,3aS,7aR)-4-(2-((3S,5R)-3,5-dihydroxy-2-methylenecyclohexylidene)ethylidene)-7a-methyl-octahydro-1H-inden-1-yl)propyl)-1-(3-(3,5-dimethoxyphenyl)propyl)-3-hydroxy-3-methylpyrrolidin-2-one] | 780
11 | C=C1/C(=C\C=C2/CCC[C@]3(C)[C@@H]([C@H](C)C[C@H]4C[C@](C)(O)C(=O)N4CCCc4ccccc4)CC[C@@H]23)C[C@@H](O)C[C@@H]1O [(3S,5S)-5-((R)-2-((1R,3aS,7aR)-4-(2-((3S,5R)-3,5-dihydroxy-2-methylenecyclohexylidene)ethylidene)-7a-methyl-octahydro-1H-inden-1-yl)propyl)-3-hydroxy-3-methyl-1-(3-phenylpropyl)pyrrolidin-2-one] | 2200
12 | C=C1/C(=C\C=C2/CCC[C@]3(C)[C@@H]([C@H](C)C[C@H]4C[C@](C)(O)C(=O)N4CCCCc4ccccc4)CC[C@@H]23)C[C@@H](O)C[C@@H]1O [(3S,5S)-5-((R)-2-((1R,3aS,7aR)-4-(2-((3S,5R)-3,5-dihydroxy-2-methylenecyclohexylidene)ethylidene)-7a-methyl-octahydro-1H-inden-1-yl)propyl)-3-hydroxy-3-methyl-1-(4-phenylbutyl)pyrrolidin-2-one] | 390
13 | C=C1/C(=C\C=C2/CCC[C@]3(C)[C@@H]([C@H](C)C[C@H]4C[C@](C)(O)C(=O)N4CCc4ccccc4)CC[C@@H]23)C[C@@H](O)C[C@@H]1O [(3S,5S)-5-((R)-2-((1R,3aS,7aR)-4-(2-((3S,5R)-3,5-dihydroxy-2-methylenecyclohexylidene)ethylidene)-7a-methyl-octahydro-1H-inden-1-yl)propyl)-3-hydroxy-3-methyl-1-phenethylpyrrolidin-2-one] | 194
